Results published in article PMC9196629, “Synthesis, Characterization and Antitumor Mechanism Investigation of Heterometallic Ru(Ⅱ)-Re(Ⅰ) Complexes” (Frontiers in Chemistry, 2022).
“And” between values parts separate entries of the source, which are not always exact repeats. Identical values can stand only once.

Key:
[1] = Stability in human serum albumin (HSA) solution by UV-Vis spectroscopy; type: physicochemical; conditions: 10 μM, HSA solution, 0, 24 and 48 h
Description: The stabilities of RuRe-1 and RuRe-2 in PBS and human serum albumin (HSA) were tested through UV–Vis spectroscopy.
Supplementary Figure 12. UV-Vis absorption spectra of RuRe-1 (10 μM), RuRe-2 (10 μM), Ru-1 (10 μM), Ru-2 (10 μM) and Re-1 (10 μM) in PBS (A) and HSA (B) solution collected at 0, 24, and 48 h, respectively.

HeLa cells [2] = assay: Cell cycle analysis by flow cytometry with PI staining; type: cell-based, human; conditions: 24 h; for S cell cycle population: control 14.4 ± 0.9; for G2/M cell cycle population: control 21.4 ± 0.7; for G0/G1 cell cycle population: control 64.2 ± 1.3
Text: Cell cycle arrest studies provide a good understanding of cell apoptosis induced by metal drugs ([Sadoughi et al., 2021]). To further clarify the mechanism of apoptosis induced by RuRe-1 and RuRe-2, we analyzed the cell cycle of HeLa cells treated with RuRe-1 and RuRe-2 by flow cytometry with PI staining. […] A corresponding decrease in cell content in G1 and G2 phases was observed.
Cell cycle analysis. After HeLa cells were adhered to the 6-well plates, the medium was replaced with medium containing different concentrations of RuRe-1 and RuRe-2 for 24 h. Cells were collected and fixed for 24 h with pre-cooled 70% ethanol, then washed twice with PBS and finally stained with PI staining solution in a warm bath at 37 °C for 30 mins. The samples were detected by flow cytometry.

HeLa cells [3] = assay: Mitochondrial membrane potential (MMP) by Rh123 staining; type: cell-based, human; conditions: 6 h, confocal microscopy
Text: Apoptosis is associated with a decrease in MMP ([Wu et al., 2022]), so we investigated the effects of RuRe-1 and RuRe-2 on MMP. A decrease in fluorescence intensity of rhodamine 123 (Rh123) can indicate the loss of MMP ([Ma et al., 2019]). […] The decline of MMP further confirmed that RuRe-1 and RuRe-2 could influence mitochondrial function and promote apoptosis.
FIGURE 6 RuRe-1 and RuRe-2 induced the loss of MMP analyzed by confocal microscopy with Rh123 staining (λ ex = 488 nm, λ em = 530 ± 20 nm). The incubation time of the compounds was 6 h. Scale bar: 20 μm.
Measurement of MMP. After HeLa cells were adhered to the confocal dishes, the medium was replaced with medium containing the indicated concentrations of RuRe-1 and RuRe-2 for 6 h. Subsequently, the medium was aspirated and the cells were washed three times with PBS, then stained with Rh123 (1 μg/mL) for 30 mins. After washing with PBS twice, cells were observed under a confocal microscopy (λex = 488 nm, λem = 530 ± 20 nm).

HeLa cells [4] = assay: Wound healing assay (cell migration); type: cell-based, human; conditions: 36 h, control 15%
Description: Metastasis is a major obstacle to cancer treatment, which will cause the failure of cancer treatment and the death of patients ([Fouani et al., 2017]). Cell migration is the main feature of metastasis. Herein, the effects of RuRe-1 and RuRe-2 on inhibiting cell migration were studied through wound healing. […] After 36 h cultivated, both RuRe-1 and RuRe-2 inhibited cell migration, and the wound closure rates were 3% and 2%, respectively, which were lower than 15% of the control group (Figure 8B).
FIGURE 8 (A) Wound healing of HeLa cells after treated with RuRe-1 (3.1 μM) and RuRe-2 (2.5 μM) for 0, 24, and 36 h. (B) Quantitative data of wound-healing. Wound closure (%) = [1−(width at indicated time)/(width at 0 h)] × 100%. (C) Inhibition of colony formation by RuRe-1 and RuRe-2. (D) Quantitative data of colony formation assays.
Wound healing assay. When reaching 80%–90% confluence, the cells were crossed with a 200 μL pipette tip, then photographed under an inverted microscope to record the width of the scratch. After the cells recovered for 1 h, the serum-free medium containing the indicated concentrations of RuRe-1 and RuRe-2 were added and incubated for a specific time (24 h, 36 h), meantime, the width of the scratch was recorded.

With `F[P-](F)(F)(F)(F)F.F[P-](F)(F)(F)(F)F.F[P-](F)(F)(F)(F)F.[C-]#[O+].[C-]#[O+].[C-]#[O+].[Re+].[Ru+2].c1ccc(-c2ccccn2)nc1.c1ccc(-c2ccccn2)nc1.c1ccc(-c2ccnc3c2ccc2c(-c4ccccc4)ccnc23)cc1.c1cnc2c(c1)c1nc(-c3ccncc3)[nH]c1c1cccnc12` [RuRe-1, [Ru(bpy)2LRe(CO)3(DIP)](PF6)3] the “stability in HSA (UV-Vis spectral characteristics and absorption peaks)” value [1] was “no significant change”, the “S cell cycle population” value (HeLa cells [2]; 6.2 μM) was 12.5 ± 0.2% and the “G2/M cell cycle population” value (HeLa cells [2]; 6.2 μM) was 18.7 ± 1.3%. For the same compound, the “G0/G1 cell cycle population” value (HeLa cells [2]; 6.2 μM) was 68.8 ± 0.5%, the “S cell cycle population” value (HeLa cells [2]; 9.3 μM) was 27.4 ± 0.9% and the “G2/M cell cycle population” value (HeLa cells [2]; 9.3 μM) was 16.1 ± 1.1%. The “G0/G1 cell cycle population” value (HeLa cells [2]; 9.3 μM) was 56.5 ± 1.1%, the “S cell cycle population” value (HeLa cells [2]; 12.4 μM) was 33.8% and 33.8 ± 1.2% and the “G2/M cell cycle population” value (HeLa cells [2]; 12.4 μM) was 14.5 ± 1.1%. For the same compound, the “G0/G1 cell cycle population” value (HeLa cells [2]; 12.4 μM) was 51.7 ± 0.9%, the “MMP (green fluorescence intensity of Rh123)” value (HeLa cells [3]) was “decrease in the green fluorescence intensity of Rh123 in a dose-dependent manner” and the wound closure rate (HeLa cells [4]; 3.1 μM) was 3%.
With `F[P-](F)(F)(F)(F)F.F[P-](F)(F)(F)(F)F.F[P-](F)(F)(F)(F)F.[C-]#[O+].[C-]#[O+].[C-]#[O+].[Re+].[Ru+2].c1ccc(-c2ccnc3c2ccc2c(-c4ccccc4)ccnc23)cc1.c1cnc2c(c1)c1nc(-c3ccncc3)[nH]c1c1cccnc12.c1cnc2c(c1)ccc1cccnc12.c1cnc2c(c1)ccc1cccnc12` [RuRe-2, [Ru(phen)2LRe(CO)3(DIP)](PF6)3] the “stability in HSA (UV-Vis spectral characteristics and absorption peaks)” value [1] was “no significant change”, the “S cell cycle population” value (HeLa cells [2]; 5.0 μM) was 16.8 ± 1.6% and the “G2/M cell cycle population” value (HeLa cells [2]; 5.0 μM) was 17.9 ± 1.4%. The “G0/G1 cell cycle population” value (HeLa cells [2]; 5.0 μM) was 65.3 ± 0.9%, the “S cell cycle population” value (HeLa cells [2]; 7.5 μM) was 39.9 ± 1.5% and the “G2/M cell cycle population” value (HeLa cells [2]; 7.5 μM) was 7.4 ± 0.5%. The “G0/G1 cell cycle population” value (HeLa cells [2]; 7.5 μM) was 52.7 ± 1.3%, the “S cell cycle population” value (HeLa cells [2]; 10.0 μM) was 40.0% and 40.0 ± 0.6% and the “G2/M cell cycle population” value (HeLa cells [2]; 10.0 μM) was 7.6 ± 0.2%. For the same compound, the “G0/G1 cell cycle population” value (HeLa cells [2]; 10.0 μM) was 52.4 ± 1.0%, the “MMP (green fluorescence intensity of Rh123)” value (HeLa cells [3]) was “decrease in the green fluorescence intensity of Rh123 in a dose-dependent manner” and the wound closure rate (HeLa cells [4]; 2.5 μM) was 2%.
